# Results as given in PMC12470154, “In Vitro Evaluation of Antimicrobial Amyloidogenic Peptides for the Treatment of Early and Mature Bacterial Biofilms” (International Journal of Molecular Sciences, 2025).
# Columns and labels:
# [1] = system: P. aeruginosa (2943 strain); assay: Mature biofilms, crystal violet staining; assay type: cell-based, Pseudomonas aeruginosa; parameters: key: ↓: Decrease in the parameter (optical density) compared to the negative control; −: No decrease in the optical density; ↑: Reverse effect (increase in the optical density compared to the control); conditions: mature biofilm: peptide added after 24 h, further 24 h, 0.01-10 mg/mL
# Experimental: (§1) After 24 h of incubation, the medium was removed. To assess the total biofilm biomass, the wells were rinsed with sterile PBS solution and stained with 0.1% crystal violet. The dye bound to the surface was then removed using 95% ethanol. To assess the presence of metabolically active cells, 0.3% MTT (PanEco Ltd., Moscow, Russia) solution was added to each well, and the plates were incubated at 37 °C for 2 h. After incubation, the MTT solution was removed, 150 µL of DMSO (Chimmed, Moscow, Russia) and 25 µL of glycine buffer were added to each well, and the plates were left at room temperature for 15 min. The resulting solutions were transferred to a flat-bottom 96-well plate, and optical density was measured at 595 nm.
# (§2) A stationary-phase culture of the tested strain was diluted 100-fold in fresh medium (200 µL per well) and added to the wells of a 96-well round-bottom plate. […] After another 24 h, the medium was removed and the wells were rinsed with sterile PBS to eliminate planktonic cells. The procedures for assessing total biofilm biomass and cell metabolic activity using crystal violet and MTT assays were performed in the same manner as described above for early-stage biofilm experiments.
# [2] = system: P. aeruginosa (2943 strain); assay: Early biofilm formation, MTT assay; assay type: cell-based, Pseudomonas aeruginosa; conditions: for bacterial metabolic activity (MTT): 10 mg/mL; for concentration given with ↓ (MTT): 24 h
# Experimental: as §1
# [3] = system: E. coli (MG1655 strain); assay: Antibacterial activity in liquid medium (optical density); assay type: cell-based, Escherichia coli; conditions: 10 mg/mL
# [4] = system: E. coli (MG1655 strain); assay: Early biofilm formation, MTT assay; assay type: cell-based, Escherichia coli; parameters: key: ↓: Decrease in the parameter (optical density) compared to the negative control; −: No decrease in the optical density; ↑: Reverse effect (increase in the optical density compared to the control); conditions: 24 h, 0.3% MTT 2 h 37 °C, OD 595 nm
# Experimental: as §1
# [5] = system: S. aureus (129B strain); assay: Mature biofilms, MTT assay; assay type: cell-based, Staphylococcus aureus; parameters: key: ↓: Decrease in the parameter (optical density) compared to the negative control; −: No decrease in the parameter; ↑: Reverse effect (increase in the optical density compared to the control); conditions: mature biofilm: peptide added after 24 h, further 24 h; 0.01-10 mg/mL
# Experimental: as §1, §2
# [6] = system: S. aureus (129B strain); assay: Mature biofilms, MTT assay; assay type: cell-based, Staphylococcus aureus; conditions: mature biofilm
# Experimental: as §1, §2
# [7] = system: MRSA (SA 180-F strain); assay: Mature biofilms, MTT assay; assay type: cell-based, methicillin-resistant Staphylococcus aureus; parameters: key: ↓: Decrease in the parameter (optical density) compared to the negative control; −: No decrease in the optical density; ↑: Reverse effect (increase in the optical density compared to the control); conditions: mature biofilm: peptide added after 24 h, further 24 h; 0.01-10 mg/mL
# Experimental: as §1, §2
# [8] = system: S. aureus (129B strain); assay: Mature biofilms, crystal violet staining; assay type: cell-based, Staphylococcus aureus; parameters: key: ↓: Decrease in the parameter (optical density) compared to the negative control; −: No decrease in the optical density; ↑: Reverse effect (increase in the optical density compared to the control); conditions: mature biofilm: peptide added after 24 h, further 24 h; 0.01-10 mg/mL
# Experimental: as §1, §2
Sequence,bacterial metabolic activity (MTT) [2],concentration given with ↓ (MTT) [2] [mg/mL],antimicrobial activity relative to meropenem [3],change of optical density after MTT assay vs negative control [4],also measured
RKKRRQRRRGGGGVVVHINGGKFGGGGSRQIKIWFQNRRMKWKK [R44K^S],reduced bacterial metabolic activity,10,comparable to that of meropenem,−,change of optical density after crystal violet staining vs negative control ([1]; listed as R44K^P): −
ITDFGIFIGLGGGGSRQIKIWFQNRRMKWKK [I31K^P],,,,,"change of optical density after MTT assay vs negative control [5]: ↓ (0.01 mg/mL); metabolic activity of cells within mature biofilms (MTT) ([6]; 0.01, 0.1, 1, and 10 mg/mL): decreased the metabolic activity; concentration given with ↓ (MTT) [6]: 0.01 mg/mL"
RKKRRQRRRGGGGITDFGIFIGL [R23L^P],,,comparable to that of meropenem,,
"VTDFGVFVEIGGGGSRQIKIWFQNRRMKWKK [V31K^T, amyloidogenic fragment of S1 of T. thermophilus linked via glycine-rich linker to antennapedia peptide]",reduced bacterial metabolic activity,10,,−,
"RKKRRQRRRGGGGVTDFGVFVEI [R23I^T, TAT cell-penetrating peptide linked via glycine linker to amyloidogenic fragment of S1 ribosomal protein of T. thermophilus]",,,,,change of optical density after MTT assay vs negative control [7]: −; change of optical density after crystal violet staining vs negative control [1]: −; change of optical density after crystal violet staining vs negative control [8]: −
